Laboratory results reported in US11013232B2, “Hydrotesting and mothballing composition and method of using combination products for multifunctional water treatment” (priority 2014, dated 2021).

Test system: 5 species of bacteria in a simulated marine environment
Experiment: Molecular technique biocidal properties (qPCR of 16s rDNA)
Format: cell-based
Details: for 7 day DNA (copies) / 14 day DNA (copies) / 21 day DNA (copies): dose rate 500 ppm
Method: Molecular techniques were performed on the best performing (Formulation 3) commercial product and the embodiments of the invention Formulation 1 and Formulation 2. This aim of the study was to investigate the efficiency of the biocides on inhibiting 5 species of bacteria in a simulated marine environment. This study was conducted over a 21 day period and involved several marine species of bacteria which have all been previously linked with attributing to corrosion. […] A control was used in the testing and glutaraldehyde was selected for this role.
For each species 3 individual inoculums for each replicate were grown from an isolated single colony picked from agar plates. The species used were Desulfovibrio desulfricans (SRB), Shewanella putrefaciens (IRB), Thiobacillus thioparus (SOB), Pseudomonas aeruginosa (biofilm) and Methanolibacter arachidis (methanogens). Following 24 hours of incubation on an orbital shaker, cells were centrifuged and the pelleted cells washed with phosphate buffered saline (PBS). Washed cells were then suspended in PBS and measured to a set optical density via UV spectrometry at 600 nm. Each species was then used to inoculate cultures to give a final starter concentration of 0.01 at 600 nm. Each treatment was conducted in triplicate with each replicate being started at alternative time periods to reduce culture bias and human error. Three negative controls and three positive controls were established for each temperature under study.
The trials were conducted in 125 mL Erlenmeyer flasks containing 75 mL of marine broth, which were subsequently autoclaved for 20 min at 121° C. All bottles were incubated at either 4° C. or 25° C. on an orbital shaking platform at 150 rpm. Triplicate biocide treatments were established at each temperature at concentrations of 500, 750 and 1000 ppm. At each weekly interval, 2 mL samples were collected at 7, 14 and 21 days from each bottle. These were subjected to a co-extraction of DNA which was measured with qPCR. The gene target in this study was 16s rDNA a conserved gene present in all bacteria and Achaea.

## O=CCCCC=O [Glutaraldehyde, Pentane-1,5-dial]
4° C., 500 ppm
  fold increase in growth compared to the highest level seen in the other biocides: 15.8 fold
25° C., 500 ppm
  fold increase in copy number compared to the highest count in the invention formulation biocide flasks: 670 fold
4° C.
  7 day DNA (copies): 2.60E+04 copies
  14 day DNA (copies): 1.11E+08 copies
  21 day DNA (copies): 7.22E+07 copies
25° C.
  7 day DNA (copies): 8.85E+04 copies
  14 day DNA (copies): 1.00E+03 copies
  21 day DNA (copies): 2.51E+10 copies
